# Experimental data from ChEMBL document CHEMBL4699525, “Design and synthesis of new indanol-1,2,3-triazole derivatives as potent antitubercular and antimicrobial agents” (Bioorg Med Chem Lett, 2020).
# The source made the active and inactive calls. No cut-off for these calls is given here.
# Columns and labels:
# Bacillus subtilis = experiment: Antibacterial activity against Bacillus subtilis assessed as inhibition of bacterial growth incubated for 24 hrs by agar well diffusion method; format: functional
# Pseudomonas aeruginosa = experiment: Antibacterial activity against Pseudomonas aeruginosa assessed as inhibition of bacterial growth incubated for 24 hrs by agar well diffusion method; format: functional
# Klebsiella aerogenes [1] = experiment: Antibacterial activity against Enterobacter aerogenes assessed as inhibition of bacterial growth incubated for 24 hrs by agar well diffusion method; format: functional
# [2] = molecular target: T1, Enoyl-[acyl-carrier-protein] reductase [NADH] (Mycobacterium tuberculosis) (UniProt P9WGR1); experiment: Inhibition of InhA in Mycobacterium tuberculosis H37Rv assessed antitubercular activity by measuring inhibition of bacterial growth incubated for 7 days by MABA assay; conditions: time 7.0 day
# T1 sequence (whole entry): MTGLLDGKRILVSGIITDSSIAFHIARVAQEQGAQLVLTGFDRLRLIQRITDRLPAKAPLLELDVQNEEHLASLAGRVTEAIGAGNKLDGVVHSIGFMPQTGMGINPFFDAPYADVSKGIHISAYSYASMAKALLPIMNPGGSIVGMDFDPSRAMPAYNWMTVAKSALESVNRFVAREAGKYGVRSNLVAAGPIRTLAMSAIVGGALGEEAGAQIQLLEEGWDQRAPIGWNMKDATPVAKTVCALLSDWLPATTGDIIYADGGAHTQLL
# Escherichia coli = experiment: Antibacterial activity against Escherichia coli assessed as inhibition of bacterial growth incubated for 24 hrs by agar well diffusion method; format: functional
# Salmonella typhi = experiment: Antibacterial activity against Salmonella typhi assessed as inhibition of bacterial growth incubated for 24 hrs by agar well diffusion method; format: functional
# Aspergillus niger [3] = experiment: Antifungal activity against Aspergillus niger assessed as inhibition of fungal growth incubated for 24 hrs by agar well diffusion method; format: functional
# [4] = tested on: Salmonella enterica subsp. enterica serovar Abony; experiment: Antibacterial activity against Salmonella abony assessed as inhibition of bacterial growth incubated for 24 hrs by agar well diffusion method; format: functional
# Staphylococcus aureus [5] = experiment: Antibacterial activity against Staphylococcus aureus assessed as inhibition of bacterial growth incubated for 24 hrs by agar well diffusion method; format: functional
# Saccharomyces cerevisiae [6] = experiment: Antifungal activity against Saccharomyces cerevisiae assessed as inhibition of fungal growth incubated for 24 hrs by agar well diffusion method; format: functional
# Candida albicans [7] = experiment: Antifungal activity against Candida albicans assessed as inhibition of fungal growth incubated for 24 hrs by agar well diffusion method; format: functional
# [8] = Cytotoxicity against human HEK293 cells assessed as inhibition of cell growth at 25 uM incubated for 48 hrs by MTT assay; format: cell-based
# Bacillus cereus = experiment: Antibacterial activity against Bacillus cereus assessed as inhibition of bacterial growth incubated for 24 hrs by agar well diffusion method; format: functional
# Shigella boydii [9] = experiment: Antibacterial activity against Shigella boydii assessed as inhibition of bacterial growth incubated for 24 hrs by agar well diffusion method; format: functional
# Staphylococcus aureus [10] = experiment: Antibacterial activity against Staphylococcus aureus assessed as inhibition of bacterial growth incubated for overnight by CLSI based method; format: functional
# Klebsiella aerogenes [11] = experiment: Antibacterial activity against Enterobacter aerogenes assessed as inhibition of bacterial growth incubated for overnight by CLSI based method; format: functional
# Shigella boydii [12] = experiment: Antibacterial activity against Shigella boydii assessed as inhibition of bacterial growth incubated for overnight by CLSI based method; format: functional
# Saccharomyces cerevisiae [13] = experiment: Antifungal activity against Saccharomyces cerevisiae assessed as inhibition of […] growth incubated for overnight by CLSI based method; format: functional
# Candida albicans [14] = experiment: Antifungal activity against Candida albicans assessed as inhibition of […] growth incubated for overnight by CLSI based method; format: functional
# Aspergillus niger [15] = experiment: Antifungal activity against Aspergillus niger assessed as inhibition of […] growth incubated for overnight by CLSI based method; format: functional
# [16] = Salmonella enterica subsp. enterica serovar Typhi
Structure (SMILES),diameter of the inhibition zone (DIZ) (Bacillus subtilis),diameter of the inhibition zone (DIZ) (Pseudomonas aeruginosa),diameter of the inhibition zone (DIZ) (Klebsiella aerogenes [1]),MIC [2] [µM],diameter of the inhibition zone (DIZ) (Escherichia coli),diameter of the inhibition zone (DIZ) (Salmonella typhi; [16]),diameter of the inhibition zone (DIZ) (Aspergillus niger [3]),diameter of the inhibition zone (DIZ) [4],diameter of the inhibition zone (DIZ) (Staphylococcus aureus [5]),diameter of the inhibition zone (DIZ) (Saccharomyces cerevisiae [6]),diameter of the inhibition zone (DIZ) (Candida albicans [7]),diameter of the inhibition zone (DIZ) (Bacillus cereus),diameter of the inhibition zone (DIZ) (Shigella boydii [9]),MIC (Staphylococcus aureus [10]) [µg/mL],MIC (Klebsiella aerogenes [11]) [µg/mL],diameter of the inhibition zone (DIZ) (Salmonella typhi) [mm],MIC (Shigella boydii [12]) [µg/mL],MIC (Saccharomyces cerevisiae [13]) [µg/mL],MIC (Candida albicans [14]) [µg/mL],MIC (Aspergillus niger [15]) [µg/mL],also measured
Cc1cc(C)c(-n2cc(COc3ccc4c(c3)CCC4)nn2)c(C)c1,inactive,inactive,inactive,6.25,inactive,inactive,inactive,inactive,inactive,inactive,inactive,inactive,inactive,,,,,,,,"inhibition at 48 h, 25 µM [8]: 16.6%"
CN(C)[C@@H]1C(O)=C(C(N)=O)C(=O)[C@@]2(O)C(O)=C3C(=O)c4c(O)cccc4[C@@](C)(O)[C@H]3C[C@@H]12 [TETRACYCLINE],32 mm,32 mm,33 mm,,29 mm,,,32 mm,29 mm,,,33 mm,34 mm,20,30,33,20,,,,
O=C(Cn1cc(COc2ccc3c(c2)CCC3)nn1)Nc1cccc([N+](=O)[O-])c1,11 mm,6 mm,10 mm,> 25,10 mm,,5 mm,10 mm,10 mm,9 mm,10 mm,12 mm,10 mm,140,145,10,140,135,150,220,
O=C(Cn1cc(COc2ccc3c(c2)CCC3)nn1)Nc1ccccc1,12 mm,10 mm,16 mm,> 25,11 mm,,9 mm,11 mm,23 mm,12 mm,13 mm,12 mm,11 mm,140,80,12,130,110,85,170,
O=C(Cn1cc(COc2ccc3c(c2)CCC3)nn1)Nc1cccc(Cl)c1,12 mm,9 mm,12 mm,> 25,13 mm,,8 mm,7 mm,10 mm,5 mm,10 mm,10 mm,11 mm,135,110,13,140,230,165,190,
Brc1cccc(-n2cc(COc3ccc4c(c3)CCC4)nn2)c1,17 mm,14 mm,16 mm,> 25,15 mm,,6 mm,14 mm,19 mm,7 mm,14 mm,10 mm,20 mm,100,150,8,130,160,100,190,
O=[N+]([O-])c1cccc(-n2cc(COc3ccc4c(c3)CCC4)nn2)c1,12 mm,11 mm,14 mm,> 25,12 mm,,6 mm,8 mm,8 mm,7 mm,12 mm,13 mm,10 mm,165,70,8,90,180,125,220,
c1ccc(-n2cc(COc3ccc4c(c3)CCC4)nn2)cc1,inactive,inactive,inactive,25,inactive,inactive,inactive,inactive,7 mm,8 mm,12 mm,inactive,inactive,,,,,,,,"inhibition at 48 h, 25 µM [8]: 23.4%"
Fc1ccccc1-n1cc(COc2ccc3c(c2)CCC3)nn1,inactive,inactive,inactive,6.25,inactive,inactive,inactive,inactive,15 mm,10 mm,9 mm,inactive,inactive,,,,,,,,"inhibition at 48 h, 25 µM [8]: 21%"
OC(Cn1cncn1)(Cn1cncn1)c1ccc(F)cc1F [FLUCONAZOLE],,,,,,,30 mm,,,30 mm,30 mm,,,,,,,12,25,8,
Cc1cccc(-n2cc(COc3ccc4c(c3)CCC4)nn2)c1,inactive,inactive,inactive,12.5,inactive,inactive,inactive,inactive,6 mm,13 mm,10 mm,inactive,inactive,,,,,,,,"inhibition at 48 h, 25 µM [8]: 23.4%"
COc1ccccc1-n1cc(COc2ccc3c(c2)CCC3)nn1,inactive,inactive,inactive,12.5,inactive,inactive,inactive,inactive,10 mm,inactive,10 mm,inactive,inactive,,,,,,,,"inhibition at 48 h, 25 µM [8]: 19.8%"
